{"source": "patent US20190314407A1", "about": "“COMPOSITIONS AND METHODS FOR THE EXPANSION OF HEMATOPOIETIC STEM AND PROGENITOR CELLS” (Magenta Therapeutics Inc., priority 2017, published 2019)", "key": {"[1]": {"system": "CD34+ cells from mPB and bone marrow (BM)", "experiment": "Ex vivo expansion of lentivirally transduced or CRISPR/Cas9 B2M-edited CD34+ cells (Example 2)", "type": "cell-based, human", "conditions": "AHR antagonist = Compound 26", "experimental": "Lentiviral Transduction: Cryopreserved CD34+ cells from mobilized peripheral blood (mPB) were thawed and cultured overnight in media with cytokines and either vehicle (DMSO) or the AHR antagonist (expanded). The following day, cells were plated on retronectin-coated plates and transduced with a lentiviral vector, containing a green fluorescent protein (GFP) transgene under the control of the MND promoter, at an MOI of 50 in the presence of vehicle or the AHR antagonist. 24 hours later, cells were harvested, washed, and resuspended in media with cytokines and the appropriate compound.\nCRISPR/Cas9 Editing and Expansion: Cryopreserved CD34+ cells from mPB and bone marrow (BM) were thawed and cultured overnight in media with cytokines and either vehicle or the AHR antagonist. Cells were electroporated with Cas9 protein (Aldevron) and synthetic, chemically-modified gRNA (Synthego) targeting beta-2-microglobulin (B2M) as a ribonucleotide protein (RNP)."}, "[2]": {"molecular_target": "T1, AHR (Homo sapiens, UniProt P35869)", "T1 sequence (P35869 11-848)": "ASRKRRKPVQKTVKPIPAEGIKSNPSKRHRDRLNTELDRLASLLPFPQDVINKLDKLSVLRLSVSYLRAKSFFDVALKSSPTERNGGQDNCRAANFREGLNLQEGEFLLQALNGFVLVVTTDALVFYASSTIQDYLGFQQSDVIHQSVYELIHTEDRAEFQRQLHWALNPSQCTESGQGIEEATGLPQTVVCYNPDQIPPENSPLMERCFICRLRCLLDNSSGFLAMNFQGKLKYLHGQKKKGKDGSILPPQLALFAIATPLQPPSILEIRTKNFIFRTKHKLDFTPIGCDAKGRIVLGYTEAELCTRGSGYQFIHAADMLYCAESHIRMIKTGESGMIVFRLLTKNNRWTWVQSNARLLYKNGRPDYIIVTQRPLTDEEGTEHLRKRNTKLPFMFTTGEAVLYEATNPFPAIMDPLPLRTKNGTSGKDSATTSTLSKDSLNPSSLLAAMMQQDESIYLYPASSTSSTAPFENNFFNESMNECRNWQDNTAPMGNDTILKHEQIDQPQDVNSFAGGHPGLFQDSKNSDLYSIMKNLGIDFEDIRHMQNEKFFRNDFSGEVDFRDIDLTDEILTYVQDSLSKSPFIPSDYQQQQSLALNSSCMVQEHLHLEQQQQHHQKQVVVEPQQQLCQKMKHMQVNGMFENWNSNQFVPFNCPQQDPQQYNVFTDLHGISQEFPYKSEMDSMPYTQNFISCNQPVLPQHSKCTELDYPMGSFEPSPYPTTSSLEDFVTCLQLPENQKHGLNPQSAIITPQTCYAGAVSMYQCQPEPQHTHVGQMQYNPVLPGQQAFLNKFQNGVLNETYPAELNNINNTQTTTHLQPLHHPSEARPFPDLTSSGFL", "experiment": "Dioxin response element luciferase reporter assay", "type": "cell-based"}, "[3]": {"system": "CD34+CD90+ mobilized peripheral blood cells", "experiment": "Cell cycle phase of CD34+CD90+ cells in culture, mobilized peripheral blood (Example 5)", "type": "cell-based", "conditions": "cytokines, same in presence or absence of Compound 26 (500 nM)"}, "[4]": {"system": "primary human CD34+ cells", "experiment": "Ex vivo expansion of primary human CD34+ cells in the presence of cytokines (Example 1)", "type": "cell-based", "conditions": "relative to vehicle-cultured CB derived CD34+ cells", "experimental": "(§1) Methods. […] Cell number and immunophenotype were assessed by flow cytometry, and HSC function was evaluated by cell and molecular assays in vitro. The expanded cells were transplanted into sub-lethally irradiated NSG mice to evaluate engraftment potential in vivo. For editing studies, mPB and BM CD34+ cells were electroporated with CRISPR/Cas9 RNPs targeting the beta-2 microglobulin (B2M) cell surface protein. Editing rates were evaluated by flow cytometry based on loss of protein expression and TIDE analysis. Edited cells were expanded in the presence of AHR antagonist or vehicle and transplanted into NSG mice. The AHR antagonist used in the experiments described in this Example is Compound 26 herein. Engraftment and editing rates were evaluated by flow cytometry of the peripheral blood and bone marrow."}, "[5]": {"system": "NSG mice", "experiment": "Transplant of gene-modified, expanded CD34+ cells into NSG mice (Example 2)", "type": "in vivo, mouse", "conditions": "AHR antagonist = Compound 26", "source_text": "Transplant into NSG mice: All of the progeny from cultured cells were transplanted into sub-lethally irradiated, female, 6-8 week old NSG mice. Engraftment and transduction/editing rates were monitored monthly by flow cytometry. “Minimally manipulated” controls were transplanted one day after editing for a total culture time of 2 days."}, "[6]": {"system": "NSG mice", "experiment": "Transplant of expanded cells into sub-lethally irradiated NSG mice, engraftment and editing rates by flow cytometry (Example 1)", "type": "in vivo, mouse", "conditions": "for engraftment in NSG mice: relative to vehicle-cultured CB derived CD34+ cells", "experimental": "as §1"}, "[7]": {"system": "mPB and BM derived CD34+ cells", "experiment": "Expansion of CRISPR/Cas9 B2M-edited mPB and BM CD34+ cells (Example 1)", "type": "cell-based, human", "conditions": "7 days of expansion, AHR antagonist = Compound 26", "experimental": "as §1"}, "[8]": {"system": "mobilized peripheral blood (mPB) CD34+ cells", "experiment": "Gene correction rate after prestimulation and electroporation with gRNA/Cas9 and oligonucleotide donor (Example 5)", "type": "cell-based", "conditions": "mPB cells prestimulated 4 days in the presence of Compound 26 versus 1 day prior to electroporation; FIG. 13A", "experimental": "Mobilized peripheral blood (mPB) CD34+ or cord blood (CB) CD34+ cells were thawed and pre-stimulated, i.e., cultured, in serum-free media (SFEM media supplemented with cytokines SCF, IL6, TPO, and FLT3L) in the presence or absence of Compound 26 (500 nM). Cells were pre-stimulated 1, 2, 3, or 4 days prior to electroporation with gRNA/Cas9 and oligonucleotide donor. Cells were cultured for an additional 8 days after electroporation and profiled at 2, 4, 6, or 8 days post-electroporation using a Trucount-based method of HSC quantification of CD34, CD90, and CD45RA. Cells were subcultured to maintain cell density at less than 1×10^6 cells/mL. On day 8, genomic DNA was extracted from bulk cell cultures, and correction rate was assessed by qPCR. Number of corrected cells was determined by number of total cells at the indicated timepoint multiplied by the correction rate for that pre-stimulation condition."}, "[9]": {"system": "CD34+CD90+ cord blood cells", "experiment": "Cell cycle phase of CD34+CD90+ cells in culture, cord blood (Example 5)", "type": "cell-based", "conditions": "cytokines, same in presence or absence of Compound 26 (500 nM)"}, "[10]": {"conditions": "mPB CD34+ cells, 7 days culture, FIGS. 2A-2D"}, "[11]": {"conditions": "B2M-edited expanded cells, AHR antagonist = Compound 26"}}, "data": [{"smiles": "COCCC(C)c1cnc2c(NCCc3c[nH]c4ccccc34)nc(-c3cncc(F)c3)cn12", "note": "(stereo not shown) [Compound 26]", "values": [{"measurement": "quantity of GFP+CD34+CD90+ cells", "setting": "[1]; GFP lentivirus-transduced mPB CD34+ cells, 7 days, versus vehicle or no treatment", "value": "increased the quantity of GFP+CD34+CD90+ cells to a greater extent than vehicle treatment"}, {"measurement": "editing rates", "setting": "[1]; both mPB and BM CD34+ cells, CRISPR/Cas9 B2M", "value": 80, "unit": "%"}, {"measurement": "quantities of total cells, CD34+ cells, and CD34+CD90+ cells relative to vehicle-treated and untreated cells", "setting": "[1]; cells subject to CRISPR/Cas9-mediated B2M editing, FIGS. 5A-5E", "value": "substantially higher quantities"}, {"measurement": "quantities of total cells, CD34+ cells, and CD34+CD90+ cells relative to vehicle-treated and untreated cells", "setting": "[1]; cells subject to lentiviral transduction, FIGS. 3A-3E", "value": "substantially higher quantities"}, {"measurement": "quantity of CD34+CD90+ cells relative to vehicle-treated and untreated cells", "setting": "[1]; [10]", "value": "substantial increase"}, {"measurement": "total quantity of cells relative to vehicle-treated cells", "setting": "[1]; [10]", "value": "increase in the total quantity of cells"}, {"measurement": "AHR antagonism in the dioxin response element luciferase reporter assay", "setting": "[2]", "value": "complete AHR antagonism"}, {"measurement": "increase in potency compared to SR1", "setting": "[2]; dioxin response element luciferase reporter assay", "value": 12, "unit": "fold"}, {"measurement": "days in culture after which substantially all CD34+CD90+ cells exit the G0 phase and enter the replicative cell cycle", "setting": "[3]", "value": "about 3 days"}, {"measurement": "increase in CD34+ number", "setting": "[4]", "value": 6, "unit": "fold"}, {"measurement": "retention of B2M− phenotype relative to vehicle-treated cells following transplantation", "setting": "[5]; NSG mice", "value": "greater retention"}, {"measurement": "improvement in engraftment compared to vehicle-cultured cells", "setting": "[5]; edited, expanded cells, both the PB and BM of mice after 16 weeks", "value": "greater than 2 fold"}, {"measurement": "engraftment rates relative to minimally-manipulated cells", "setting": "[5]; expanded, edited mPB and BM cells, FIGS. 7A-7N", "value": "higher engraftment rates"}, {"measurement": "editing rates following transplantation into NSG mice", "setting": "[5]; mPB and BM CD34+ cells", "value": "maintained"}, {"measurement": "engraftment compared to minimally manipulated and vehicle controls", "setting": "[5]; mPB and BM hematopoietic stem cells transplanted into NSG mice", "value": "increased engraftment"}, {"measurement": "engraftment rates relative to vehicle-cultured cells", "setting": "[5]; transduced/edited, expanded mPB cells in NSG mice", "value": "higher engraftment rates"}, {"measurement": "human cells in the periphery of the mice showing loss of target protein (average)", "setting": "[6]; [11]", "value": "> 75", "unit": "%"}, {"measurement": "increase in engraftment compared to mice receiving vehicle-treated cells", "setting": "[6]; [11]", "value": "greater than 2 fold"}, {"measurement": "engraftment in NSG mice", "setting": "[6]", "value": "significant increase"}, {"measurement": "CD34+CD90+ cells in expanded culture versus vehicle-treated cells", "setting": "[7]; B2M-edited cells", "value": 3.4, "unit": "fold"}, {"measurement": "loss of the target protein (B2M)", "setting": "[7]; mPB and BM CD34+ cells edited with CRISPR/Cas9 RNPs", "value": 84, "unit": "%"}, {"measurement": "rates of gene correction", "setting": "[8]", "value": "higher rates of gene correction"}, {"measurement": "days in culture after which substantially all CD34+CD90+ cells exit the G0 phase and enter the replicative cell cycle", "setting": "[9]", "value": "about 3 days"}]}, {"smiles": "CC(C)n1cnc2c(NCCc3ccc(O)cc3)nc(-c3csc4ccccc34)nc21", "note": "[SR1, reference compound]", "values": [{"measurement": "increase in CD34+ number", "setting": "[4]", "value": 6, "unit": "fold"}, {"measurement": "engraftment in NSG mice", "setting": "[6]", "value": "significant increase"}]}]}
